Measurements published in patent publication US20240350432A1, “CENTRAL NERVOUS SYSTEM MODULATORS AS COVID-19 THERAPEUTICS” (priority 2023, published 2024).
“Also recorded” adds a separate entry of the source.

How the values were obtained:
[1] = test system: SARS-CoV-2, Beta variant; assay type: in vivo; details: COVID-19 positive mice; for body weight nonlinear regression, Best fit / body weight as percent of baseline weight over time: 10 mg/kg I.P. BID, 10 day group; for body weight as percent of baseline weight over time: 10 mg/kg
[2] = test system: SARS-CoV-2, Beta variant; parameters: species or system mice; details: mouse, in vivo, ip, 10 mg/kg

Compound | body weight nonlinear regression, Best fit [1] | body weight as percent of baseline weight over time [1] | body weight nonlinear regression, Slope 1 ([1]; Segmental Line fit) | body weight nonlinear regression, Slope2 ([1]; Segmental Line fit) | body weight nonlinear regression, X0 ([1]; Segmental Line fit) | survival outcome [2]
CC(C(O)c1ccc(O)cc1)N1CCC(Cc2ccccc2)CC1 (stereo not drawn) [ifenprodil] | Segmental Line | appear to reduce observable signs of disease; also recorded: reduction in body weight starting around day 5; also recorded: body weight returned to normal levels by day 10 post-inoculation | -0.8076 | 0.8604 | 6 | some protective effect
CC12CC3CC(C)(C1)CC(N)(C3)C2 [memantine] | Horizontal Line | appear to reduce observable signs of disease; also recorded: little to no fluctuation in body weight | – | – | – | good survival; also recorded: significantly improved survival outcome
